Reference: patent publication US20030004355A1, “Fused pyrazolyl compounds” (priority 2001, published 2003)

How the values were obtained:
platelets = test: Inhibition of platelet aggregation (turbidimetric, washed platelets); format: cell-based; settings: washed rabbit platelets, AA; for inhibitory effect on platelet aggregation induced by different inducers: inducers thrombin, collagen, PAF, read 5 minutes after the inducer
Description: In vitro assays can be used to evaluate the efficacy of a fused pyrazolyl compound of this invention in inhibiting platelet aggregation; which is attributable to low intracellular cGMP levels. For example, the compound is incubated in a platelet suspension containing a platelet aggregation factor, and the degree of aggregation is measured turbidimetrically with a dual-channel lumiaggregometer and converted into a percentage value by the method described in Teng et al., Biochem. Biophys Acta. 1987, 924:375-382.
EDTA was added to blood collected from the marginal ear vein of a rabbit to reach a final EDTA concentration of 6 mM. The EDTA-containing blood was then centrifuged at 90×g for 10 minutes at the room temperature. The supernatant, a platelet-rich plasma, was further centrifuged at 500×g for 10 minutes. The platelet pellets thus obtained were washed with a solution containing EDTA (2 mM) and serum albumin (3.5 mg/mL), and then centrifuged again at 500×g for 10 minutes. The pellets were then washed with an EDTA-free Tyrode's solution of the following composition (mM): NaCl (136.8), KCl (2.8), NaHCO3 (11.9), MgCl2 (1.1), NaH2PO4 (0.33), CaCl2 (1.0), and glucose (11.2). After centrifugation under the same conditions, the platelet pellets were suspended in the EDTA-free Tyrode's solution described above. The platelet number was counted by a Coulter Counter (Model ZM) and adjusted to 4.5×10^8 platelets/mL.
A compound to be tested was added to 4 platelet suspensions, which were then incubated at 37° C. for 3 minutes under a stirring condition (900 rpm). One minute after the stirring, four aggregation inducers, i.e., thrombin, collagen, arachidonic acid (AA), and platelet aggregation factor (PAF), were respectively added into the 4 suspensions, causing the platelets to aggregate. Platelet aggregation in each suspension was measured with a dual-channel lumiaggregometer (Model 1020, Payton, Canada) by the turbidimetric method described in Born et al., J. Physiol. 1963, 168:178-195. The percentage values of the platelet aggregation, determined 5 minutes after the addition of each aggregation inducer, were calculated by the method described in Teng et al., Biochem. Biophys Acta. 1987, 924:375-382.

sGC = test: Activation of sGC (conversion of [α-32P]GTP to cGMP by platelet lysate supernatant); format: biochemical; settings: 100 μM compound; washed rabbit platelet supernatant; 30° C., 10 minutes
Description: The efficacy of a compound in activating sGC can be evaluated in vitro by the following assay. Washed platelets are suspended in a buffer and disrupted by sonication. The lysate is then centrifuged to obtain a supernatant which is used as the source of sGC. An aliquot of the supernatant and the compound to be tested are added into a buffer containing GTP, a substrate for sGC. The activity of sGC can be determined by the method described in Gerzer et al., J. Pharmacol. Exp. Ther. 1983, 226:180.
Washed rabbit platelets were prepared by the method described in Teng et al., Thromb. Haemost. 1988, 59:304. They were then suspended in 50 mM pH 7.4 Tris-HCl buffer and subsequently disrupted by sonication. The lysate thus obtained was centrifuged at 39,000×g at 4° C. for 20 minutes, and the supernatant was used as the source of sGC. Two 50 μL aliquots of the supernatant were respectively added to two 150 μL pH 7.4 Tris-HCl (50 mM) buffer solutions, each containing GTP (0.2 mM, containing 1×10^6 cpm [α-^32P]GTP), MgCl2 (5 mM), cGMP (2.5 mM), creatine phosphate (15 mM), and creatine phosphokinase (30 μg). One of the two solutions also contained 100 μM compound 3. After incubation at 30° C. for 10 minutes, conversion of GTP to cGMP by sGC was terminated with HCl (200 μL, 0.5 N). […] Radioactivity ([^32P]cGTP) was measured in a liquid scintillation counter to determine the amount of […].

PDEs = test: Inhibition of PDE (conversion of [3H]cGMP by platelet lysate supernatant); format: biochemical; settings: 10 μM compound; washed human platelet supernatant; 10 μM cGMP; 37° C., 30 minutes
Description: The efficacy of a compound in inhibiting PDEs can be evaluated in vitro by the following assay. Washed platelets are suspended in a Tris-HCl buffer and disrupted by sonication. The lysate is centrifuged to obtain a supernatant which contains PDEs. An aliquot of the supernatant is taken to prepare a PDE-containing solution. The compound to be tested and cGMP (a substrate for PDE) are added to the solution. Ophiophagus hannah snake venom is subsequently added to remove the phosphate in 5′-GMP (converted from cGMP by PDEs) to form uncharged guanosine. An ion-exchange resin is used to remove the remaining cGMP. The cGMP-free solution is then centrifuged, and an aliquot of the supernatant is taken for quantification of the uncharged guanosine in a liquid scintillation counter. Activity of PDEs is evaluated based on the amount of the uncharged guanosine.
Washed human platelets were prepared by the method described in Teng et al., Biochem. Biophys. Acta. 1989, 990:315-320. They were then suspended in 50 mM pH 7.4 Tris-HCl buffer (containing 5 mM MgCl2) and subsequently disrupted by sonication at 4° C. […] Each cGMP-free solution thus obtained was then centrifuged, and an aliquot (0.5 mL) of the supernatant was taken for quantification of uncharged guanosine in a liquid scintillation counter.

SMILES | inhibitory effect on platelet aggregation induced by different inducers (platelets) | activation of sGC (sGC) | relative effectiveness in inhibiting platelet aggregation among compounds 1-4 (platelets; aggregation induced by thrombin, collagen, and PAF) | inhibition of PDEs (PDEs)
COC(=O)c1ccc(-c2nn(Cc3ccccc3)c3cc4c(cc23)OCO4)o1 [Compound 1, 1-benzyl-3-(5′-methoxycarbonyl-2′-furyl)-5,6-methylenedioxoindazole] | showed inhibitory effect on platelet aggregation |  |  | 
COCc1ccc(-c2nn(Cc3ccccc3)c3cc4c(cc23)OCO4)o1 [Compound 4, 1-benzyl-3-(5′-methoxymethyl-2′-furyl)-5,6-methylenedioxoindazole] | showed inhibitory effect on platelet aggregation |  |  | 
O=C(O)c1ccc(-c2nn(Cc3ccccc3)c3cc4c(cc23)OCO4)o1 [Compound 2, 1-benzyl-3-(5′-hydroxycarbonyl-2′-furyl)-5,6-methylenedioxoindazole] | showed inhibitory effect on platelet aggregation |  |  | 
OCc1ccc(-c2nn(Cc3ccccc3)c3cc4c(cc23)OCO4)o1 [Compound 3, 1-benzyl-3-(5′-hydroxymethyl-2′-furyl)-5,6-methylenedioxoindazole] | showed inhibitory effect on platelet aggregation | effective activator of sGC | the most effective | potent inhibitor of PDEs
